Results as given in patent US20090311292A1, “PROCESS FOR SYNTHESIS AND INCORPORATION OF NITRIC OXIDE DONORS IN MACROMOLECULAR COMPOSITIONS” (CRISTALIA PRODUTOS QUIMICOS FARMACEUTICOS LTDA., priority 2006, published 2009).

Columns and labels:
[1] = Stability of solid glutathione at 30° C. and 40° C. (UV-visible spectrophotometry after conversion to GSNO); format: physicochemical; conditions: for Content (%) 30 days / Content (%) 70 days / Content (%) 105 days / Content (%) 165 days / Content (%) Initial: solid
Description: Samples of solid glutathione (GSH) were stored in amber glass vials and maintained at temperatures of 30° C. and 40° C. for evaluation of its stability. GSH content in the samples was determined by UV-visible spectrophotometry from the reaction between GSH and NaNO2 in acid medium (aqueous HCl solution, 2.0 mol L^−1) forming GSNO with absorption bands at 336 nm and 545 nm. GSNO formation (0.05 mol L^−1) was quantified by the intensity of the GSNO absorption band at 545 nm.

[2] = Stability of GSNO incorporated in PEO-PPO-PEO matrix (Pluronic F-127) under refrigeration; format: physicochemical; conditions: for Content (%) 30 days / Content (%) 45 days / Content (%) 110 days / Content (%) Initial: 5-8° C.
[3] = incorporated in PEO-PPO-PEO gel at 37° C.; cited from earlier work
[4] = system: excisional wound on the back of Wistar rats; assay: Cutaneous wound healing in an animal model (excisional wound); format: in vivo
Source text: 6.1. Acceleration of cutaneous wound healing in an animal model. […] The formulation of freshly prepared GSNO (100 μmol L^−1) was topically applied to the wounds of the animals. Wistar rats (n=10) were housed in individual cages with free access to water. In the first day (Day 0-d0), an excisional wound (2×2 cm) was made on the back of the animals, under general anesthesia. The wound was covered with either pure hydrogel (control animals) or GSNO-containing hydrogel (treated group). Thereafter, the wounds were closed with a dressing. Daily, up to the fourth day after injury, the dressings were removed, and the wounds were gently cleaned with cold saline. The hydrogel (either containing GSNO or not) was applied and the dressing was replaced. From the fifth day after injury on, the wounds were no longer closed with a dressing.
Wound retraction was measured and reepithelization was evaluated histologically. Wound contours were traced in a transparent paper sheet at the day of injury and after 3, 5, 7, 14 and 21 days. The tracing area was determined using image-analysis software (Image-Pro) and the results were expressed as percentages of the initial area. Blood pressure was measured at the beginning and end of the experiments. After euthanasia, a fragment containing the wound and the adjacent healthy skin was removed. The fragments were fixed in formalin solution, processed and embedded in paraffin. The paraffin-embedded specimens were serially sectioned and 5-μm-thick cuts were obtained and stained using the following techniques: hematoxylin-eosin (for overall observation of the tissue fragment), picro-Mallory (for observation of the connective tissue) and picrosirius red (for observation of the collagen fibers). The blood pressure of the control and treated animals was equivalent at the beginning and end of the experiments.

[5] = 25° C. in the dark, 0.1 to 61.0 mmol L^−1, follow-up 3.5 hours; cited from earlier work
[6] = Stability of solid GSNO stored at room temperature (absorbance at 336 nm); format: physicochemical; conditions: amber glass vials, room temperature (25° C.)
Description: Samples of solid GSNO were stored in amber glass vials and maintained at room temperature (25° C.) for evaluation of its stability. GSNO content in the samples at day 0, after 48 hours (day 2) and after 5 days was quantified from the absorbance readings of the aqueous solutions 500 μmol L^−1 at 336 nm. […] According to the results, after 48-hours of storage at room temperature, decomposition of approximately 52% of the initial GSNO content occurs.

[7] = 50 μmolL^−1 in hydrogel formulation
[8] = 100 μmolL^−1 in hydrogel formulation
[9] = 200 μmolL^−1 in hydrogel formulation
[10] = twenty-one days after injury, superficial and deep areas

N[C@@H](CCC(=O)N[C@@H](CS)C(=O)NCC(=O)O)C(=O)O [GSH, glutathione]
time remained stable ([1]; solid form, follow up by UV-visible spectrophotometry): at least 165 days
Content (%) 30 days ([1]; 30° C.): 100 ± 6%
Content (%) 70 days ([1]; 30° C.): 102 ± 6%
Content (%) 105 days ([1]; 30° C.): 103 ± 6%
Content (%) 165 days ([1]; 30° C.): 100 ± 6%
Content (%) Initial ([1]; 30° C.): 100 ± 6%
Content (%) 30 days ([1]; 40° C.): 100 ± 6%
Content (%) 70 days ([1]; 40° C.): 100 ± 6%
Content (%) 105 days ([1]; 40° C.): 99 ± 6%
Content (%) 165 days ([1]; 40° C.): 101 ± 6%
Content (%) Initial ([1]; 40° C.): 100 ± 6%

N[C@@H](CCC(=O)N[C@@H](CSN=O)C(=O)NCC(=O)O)C(=O)O [GSNO, S-nitrosoglutathione]
Content (%) 30 days [2, 7]: 96 ± 6%
Content (%) 45 days [2, 7]: 89 ± 6%
Content (%) 110 days [2, 7]: 85 ± 6%
Content (%) Initial [2, 7]: 100 ± 6%
Content (%) 30 days [2, 8]: 103 ± 6%
Content (%) 45 days [2, 8]: 100 ± 6%
Content (%) 110 days [2, 8]: 80 ± 6%
Content (%) Initial [2, 8]: 100 ± 6%
Content (%) 30 days [2, 9]: 90 ± 6%
Content (%) 45 days [2, 9]: 90 ± 6%
Content (%) 110 days [2, 9]: 85 ± 6%
Content (%) Initial [2, 9]: 100 ± 6%
decrease in relation to the initial GSNO content ([2]; in PEO-PPO-PEO matrix, 50, 100 and 200 μmol L^−1, 110 days at 5-8° C.): about 20%
initial rate of thermal decomposition [3]: 2.3 μmolL^−1 min^−1
area of wound reepithelization larger compared to the control group ([4]; 7 days after injury): > 77%
wound retraction versus control group ([4]; after 3, 5 and 7 days of injury (p=0.01; p=0.05; p=0.007), GSNO-containing hydrogel 100 μmol L^−1): greater
new epidermis formation compared to the control animals ([4]; after 14 and 21 days of injury): more accentuated
wound contraction in relation to the controls ([4]; after 14 and 21 days of injury): greater
blood pressure of control and treated animals ([4]; beginning and end of the experiments, GSNO 100 μmol L^−1 in Pluronic F-127 hydrogel, topical): equivalent
wound area in control animals larger than in GSNO-treated animals ([4]; fourteen days after injury): 22%
number of microvessels in relation to the control group ([4]; twenty-one days after injury): tendency of increase
total number of mast cells in deep areas of the granulation tissue compared to the control group ([4]; twenty-one days after injury): +384%
wound area in control animals larger than in GSNO-treated animals ([4]; twenty-one days after injury): 20%
inflammatory cells in granulation tissue of control group in comparison to GSNO-treated group [4, 10]: larger number
number of fibroblasts in granulation tissue compared to the control group [4, 10]: increase
thermal decomposition of aqueous solution [5]: undergo spontaneous thermal decomposition
Content (%) After 2 days [6]: 48 ± 6%
Content (%) After 5 days [6]: 36 ± 6%
Content (%) Initial (day 0) [6]: 100 ± 6%

N[C@@H](CSN=O)C(=O)O [S-nitrosocysteine, reference compound]
thermal decomposition of aqueous solution [5]: undergo spontaneous thermal decomposition

CC(=O)N[C@@H](CSN=O)C(=O)O [SNAC, S-nitroso-N-acetylcysteine]
initial rate of thermal decomposition [3]: 7.2 μmolL^−1 min^−1
thermal decomposition of aqueous solution [5]: undergo spontaneous thermal decomposition
